Assay results taken from ChEMBL document CHEMBL1127891, “Benzopyran potassium channel activators related to cromakalim - heterocyclic amide replacements at position 4” (1994).

Tests used:
Type in all cases: functional
Rattus norvegicus [1] = experiment: Tested for antihypertensive activity expressed as max fall in BP in spontaneously hypertensive rats (SHR), at the dose of 0.1 mg/kg
Rattus norvegicus [2] = experiment: Tested for antihypertensive activity expressed as max fall in BP in spontaneously hypertensive rats (SHR), at the dose of 0.3 mg/kg
Rattus norvegicus [3] = experiment: Tested for antihypertensive activity expressed as max fall in BP in spontaneously hypertensive rats (SHR), at the dose of 1 mg/kg
Rattus norvegicus [4] = experiment: Tested for antihypertensive activity expressed as max fall in BP in spontaneously hypertensive rats (SHR), at the dose of 10.0 mg/kg
Rattus norvegicus [5] = experiment: Tested for antihypertensive activity expressed as max fall in BP in spontaneously hypertensive rats (SHR), at the dose of 3.0 mg/kg

Cn1nc(N)nc1N[C@@H]1c2cc(C#N)ccc2OC(C)(C)[C@H]1O
Max fall in blood pressure (Rattus norvegicus [1]): 30
Max fall in blood pressure (Rattus norvegicus [2]): 56

Cn1ncnc1N[C@@H]1c2cc(C#N)ccc2OC(C)(C)[C@H]1O
Max fall in blood pressure (Rattus norvegicus [2]): 22
Max fall in blood pressure (Rattus norvegicus [3]): 35

Cn1nc(N[C@@H]2c3cc(C#N)ccc3OC(C)(C)[C@H]2O)nc1N
Max fall in blood pressure (Rattus norvegicus [4]): 33

Cc1nc(N[C@@H]2c3cc(C#N)ccc3OC(C)(C)[C@H]2O)n(C)n1
Max fall in blood pressure (Rattus norvegicus [5]): 37
Max fall in blood pressure (Rattus norvegicus [3]): 22

CC1(C)Oc2ccc(C#N)cc2[C@@H](Nc2n[s+]([O-])nc2N)[C@@H]1O (some centres not stated)
Max fall in blood pressure (Rattus norvegicus [5]): 20

CC1(C)Oc2ccc(C#N)cc2[C@@H](Nc2n[nH]c(N)n2)[C@@H]1O
Max fall in blood pressure (Rattus norvegicus [5]): 19

C/N=C(\NC#N)N[C@@H]1c2cc(C#N)ccc2OC(C)(C)[C@H]1O
Max fall in blood pressure (Rattus norvegicus [2]): 16
Max fall in blood pressure (Rattus norvegicus [3]): 41

CC1(C)Oc2ccc(C#N)cc2[C@@H](Nc2nc(N)no2)[C@@H]1O
Max fall in blood pressure (Rattus norvegicus [5]): 32
Max fall in blood pressure (Rattus norvegicus [3]): 16

Cc1noc(N[C@@H]2c3cc(C#N)ccc3OC(C)(C)[C@H]2O)n1
Max fall in blood pressure (Rattus norvegicus [5]): 31

CC1(C)Oc2ccc(C#N)cc2[C@@H](N2CCCC2=O)[C@@H]1O [CROMAKALIM]
Max fall in blood pressure (Rattus norvegicus [1]): 13
Max fall in blood pressure (Rattus norvegicus [2]): 39
Max fall in blood pressure (Rattus norvegicus [3]): 47
